Here are results for one compound from US6713506B2, “Tea polyphenol esters and analogs thereof for cancer prevention and treatment” (University of South Florida, priority 2000, dated 2004).

In the assay the target is T1, chymotrypsin-like activity in living breast (MCF7) cancer cells (Homo sapiens, UniProt P28074).
T1 construct: endogenous in cells; host or cells: MCF7 cells (intact)
Nature of the assay: Proteasome chymotrypsin-like activity in living MCF7 cells. The assay is classed as cell-based. As for the experimental part: FIG. 16(A) The fluorogenic calpain I peptide substrate Suc-Leu-Tyr-AMC (S; 40 μM) is incubated with either a purified calpain I (P; 3 μg) or buffer (Buff) at 30° C. for 30 min with or without 10 μM calpeptin, EGCG or EGC, followed by measuring AMCs (the product), as described in the text. (B) T1 or T2 cells are treated with LLL at either 10 (A-C) or 50 μM (D, E), followed by Western blotting with indicated antibodies.(C) MCF-7 cells, pre-incubated with EGCG at an indicated concentration for 12 h, are incubation for additional 12 h with 20 μM Suc-Leu-Leu-Val-Tyr-AMC (the peptide substrate for the proteasomal chymotryptic activity), followed by measurement of AMCs in medium (as described in the grant and the manuscript). (D) Cell cycle-dependent p27 degradation. PCI-13 head and neck tumor cells are treated with aphidicolin (5 μg/ml) for 24 h (0 h), followed by release for up to 24 h. […]
(b) The peptide substrate for the proteasomal chymotrypsin-like activity, Suc-Leu-Leu-Val-Tyr-AMC, is used to measure the proteasome activity in intact Jurkat, MCF-7 and PC-3 cells, which is inhibitable by co-incubation with EGCG (FIG. 16C). […] After that, medium is collected and the liberated AMCs in the medium are measured by fluorometer to measure in vivo potency and selectivity of tea polyphenols.

“Also recorded” adds a separate entry of the source.

Turning to `O=C(O[C@@H]1Cc2c(O)cc(O)cc2O[C@@H]1c1cc(O)c(O)c(O)c1)c1cc(O)c(O)c(O)c1` [EGCG, (−)-epigallocatechin-3-gallate], the “inhibition of chymotrypsin-like activity in living MCF7 cells (in words)” value was “inhibitable; also recorded: inhibits”.
